For assay [1], the target named is T1, Replicative DNA helicase DnaB (Mycobacterium tuberculosis, UniProt P9WMR3).
T1 sequence (P9WMR3 whole entry): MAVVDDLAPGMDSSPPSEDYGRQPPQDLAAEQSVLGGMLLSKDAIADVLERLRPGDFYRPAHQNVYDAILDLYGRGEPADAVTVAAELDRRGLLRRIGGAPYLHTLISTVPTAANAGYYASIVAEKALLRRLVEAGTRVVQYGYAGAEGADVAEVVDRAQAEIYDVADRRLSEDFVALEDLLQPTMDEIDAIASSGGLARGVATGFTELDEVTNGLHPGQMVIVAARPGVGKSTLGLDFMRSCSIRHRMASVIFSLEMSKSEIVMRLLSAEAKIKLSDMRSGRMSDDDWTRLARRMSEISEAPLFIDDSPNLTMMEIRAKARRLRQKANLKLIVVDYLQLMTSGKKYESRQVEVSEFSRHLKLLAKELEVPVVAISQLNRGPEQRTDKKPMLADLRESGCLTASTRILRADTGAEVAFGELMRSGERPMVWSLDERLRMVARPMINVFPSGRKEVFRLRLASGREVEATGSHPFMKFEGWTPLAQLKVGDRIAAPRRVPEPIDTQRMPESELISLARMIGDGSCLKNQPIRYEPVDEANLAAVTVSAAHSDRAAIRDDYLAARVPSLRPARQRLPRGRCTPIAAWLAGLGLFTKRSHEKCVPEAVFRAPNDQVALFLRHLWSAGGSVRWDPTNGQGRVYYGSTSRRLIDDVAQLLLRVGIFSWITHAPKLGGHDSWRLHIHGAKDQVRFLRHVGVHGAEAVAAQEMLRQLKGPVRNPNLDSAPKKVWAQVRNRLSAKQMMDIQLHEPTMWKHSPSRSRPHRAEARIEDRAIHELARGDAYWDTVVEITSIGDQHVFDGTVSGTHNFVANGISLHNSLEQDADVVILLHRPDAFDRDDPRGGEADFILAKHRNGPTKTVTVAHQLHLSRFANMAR
In words: DnaB intein splicing inhibitors, dose response, biochemical, cell-free fluorescence (AID 449749). It is filed as functional.

In assay [2] the target is T2, X-box-binding protein 1 (Homo sapiens, UniProt P17861).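 Further: confirmatory dose-response counter-screen serving a CHOP assay.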
T2 sequence (P17861 whole entry): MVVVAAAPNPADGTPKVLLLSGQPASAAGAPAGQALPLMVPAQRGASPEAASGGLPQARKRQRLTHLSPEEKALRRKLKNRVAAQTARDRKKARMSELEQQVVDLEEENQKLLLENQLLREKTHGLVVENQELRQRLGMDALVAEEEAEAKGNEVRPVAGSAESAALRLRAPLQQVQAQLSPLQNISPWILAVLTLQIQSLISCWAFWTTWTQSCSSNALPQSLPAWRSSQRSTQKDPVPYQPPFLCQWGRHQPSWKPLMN
The format is functional, Cricetulus griseus.

In assay [3] the target is SUMO E1/E2 (Homo sapiens, UniProt P63279+Q9UBE0+Q9UBT2). In words: SAR analysis of SUMOylation using HTRF in an in-Vitro dose response assay. [Related pubchem assays (depositor defined):AID2006, AID2011, AID2018, AID2069, AID2658]. The format is functional.
Sequence of SUMO E1/E2 (Q9UBE0 whole entry): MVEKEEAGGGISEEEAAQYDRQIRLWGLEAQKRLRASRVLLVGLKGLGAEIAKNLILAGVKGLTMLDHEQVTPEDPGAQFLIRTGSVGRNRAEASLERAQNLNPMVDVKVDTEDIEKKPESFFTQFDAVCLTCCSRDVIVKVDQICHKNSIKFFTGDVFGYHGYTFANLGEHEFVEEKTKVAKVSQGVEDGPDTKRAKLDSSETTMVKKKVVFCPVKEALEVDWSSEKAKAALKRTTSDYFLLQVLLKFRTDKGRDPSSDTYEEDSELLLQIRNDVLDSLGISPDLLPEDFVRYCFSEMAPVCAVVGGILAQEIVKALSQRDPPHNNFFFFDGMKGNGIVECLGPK
Sequence of SUMO E1/E2 (Q9UBT2 whole entry): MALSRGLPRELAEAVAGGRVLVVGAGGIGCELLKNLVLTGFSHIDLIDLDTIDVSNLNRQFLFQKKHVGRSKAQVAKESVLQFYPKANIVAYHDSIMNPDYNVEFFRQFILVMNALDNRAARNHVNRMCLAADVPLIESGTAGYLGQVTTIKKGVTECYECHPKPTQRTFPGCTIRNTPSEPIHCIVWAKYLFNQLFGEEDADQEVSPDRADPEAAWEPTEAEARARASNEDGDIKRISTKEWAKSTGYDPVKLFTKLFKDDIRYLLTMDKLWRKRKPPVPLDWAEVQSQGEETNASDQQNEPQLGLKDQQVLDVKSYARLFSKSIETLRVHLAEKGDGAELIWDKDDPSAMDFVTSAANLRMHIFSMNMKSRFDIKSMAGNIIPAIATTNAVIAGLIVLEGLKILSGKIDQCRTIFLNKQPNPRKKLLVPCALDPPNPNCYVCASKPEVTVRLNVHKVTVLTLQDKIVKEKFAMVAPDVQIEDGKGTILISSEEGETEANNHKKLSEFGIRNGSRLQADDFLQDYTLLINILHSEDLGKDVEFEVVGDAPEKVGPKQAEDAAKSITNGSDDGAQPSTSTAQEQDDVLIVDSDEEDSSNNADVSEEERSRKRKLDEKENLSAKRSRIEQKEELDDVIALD
Sequence of SUMO E1/E2 (P63279 whole entry): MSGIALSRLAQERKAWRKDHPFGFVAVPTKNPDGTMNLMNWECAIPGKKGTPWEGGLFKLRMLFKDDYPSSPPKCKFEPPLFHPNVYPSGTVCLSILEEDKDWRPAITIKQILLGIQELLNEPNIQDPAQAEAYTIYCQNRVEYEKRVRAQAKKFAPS
The target of assay [4] is SUMO-activating enzyme (Homo sapiens, UniProt Q9UBT2). In words: inhibitors of in vitro SUMOylation cascade, primary screen, biochemical, HTRF, uHTS (AID 2006). The format is protein-complex assay.
Sequence of SUMO-activating enzyme (Q9UBE0 whole entry): as the sequence (Q9UBE0 whole entry) above
Sequence of SUMO-activating enzyme (Q9UBT2 whole entry): as the sequence (Q9UBT2 whole entry) above
For assay [5], the target named is T3, Long-chain-fatty-acid--AMP ligase FadD28 (Mycobacterium tuberculosis, UniProt P9WQ59).
T3 sequence (P9WQ59 whole entry): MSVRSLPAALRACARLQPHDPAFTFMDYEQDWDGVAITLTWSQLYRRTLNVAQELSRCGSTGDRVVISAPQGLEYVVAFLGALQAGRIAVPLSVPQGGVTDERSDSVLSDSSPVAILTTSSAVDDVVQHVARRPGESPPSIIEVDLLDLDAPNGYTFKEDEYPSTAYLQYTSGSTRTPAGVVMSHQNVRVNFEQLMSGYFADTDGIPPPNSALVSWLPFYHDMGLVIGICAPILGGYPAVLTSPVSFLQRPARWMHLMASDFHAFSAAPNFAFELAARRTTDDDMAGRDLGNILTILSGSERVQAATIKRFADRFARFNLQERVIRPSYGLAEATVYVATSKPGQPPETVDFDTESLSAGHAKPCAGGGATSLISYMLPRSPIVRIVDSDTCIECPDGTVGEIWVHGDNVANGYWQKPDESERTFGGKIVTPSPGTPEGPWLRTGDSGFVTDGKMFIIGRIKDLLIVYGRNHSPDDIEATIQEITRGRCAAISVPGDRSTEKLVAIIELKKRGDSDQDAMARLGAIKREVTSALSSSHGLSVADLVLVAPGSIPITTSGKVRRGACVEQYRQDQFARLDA
In words: Fluorescence polarization aasay to screen for inhibitors that compete for the binding of FadD28 to a bisubstrate Measured in Biochemical System Using Plate Reader - 2147-01_Inhibitor_Dose_CherryPick_Activity. It is filed as functional, Mycobacterium tuberculosis H37Rv.

Assay [6] addresses T4, Tyrosyl-DNA phosphodiesterase 2 (Homo sapiens, UniProt O95551).
T4 sequence (O95551 whole entry): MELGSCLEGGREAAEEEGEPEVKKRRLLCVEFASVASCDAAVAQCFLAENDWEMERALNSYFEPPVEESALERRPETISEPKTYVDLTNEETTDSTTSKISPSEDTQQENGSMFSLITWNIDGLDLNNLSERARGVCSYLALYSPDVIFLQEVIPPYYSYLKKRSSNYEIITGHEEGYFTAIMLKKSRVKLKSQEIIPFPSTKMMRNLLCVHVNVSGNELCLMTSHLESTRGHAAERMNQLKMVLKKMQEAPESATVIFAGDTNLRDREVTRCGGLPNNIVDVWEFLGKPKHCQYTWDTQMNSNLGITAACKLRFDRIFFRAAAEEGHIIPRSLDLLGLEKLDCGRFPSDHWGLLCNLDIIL
In words: human TDP2 enzyme inhibitors, dose response, biochemical, epi absorbance, IC50 (AID 743297).

Activity calls are given as the source filed them.

With `CCCCn1c(NS(=O)(=O)c2ccccc2)c(S(=O)(=O)c2ccc(C)cc2)c2nc3ccccc3nc21`, the AC50 is > 380 µM (inactive) in assay [1] and 46.5 µM (active) in assay [5]. The “Absolute IC50 (XBP1)” value in assay [2] was found to be 10 µM. Besides, the IC50 is 4.2 µM (active) in assay [3], 1.83 µM (active) in assay [4] and 7.83 µM (active) in assay [6].

The values are drawn from ChEMBL document CHEMBL1201862, “PubChem BioAssay data set” (2004).
